According to patent US4942245A, “Benzimidazole Derivatives” (Kyorin Pharmaceutical Co., Ltd., priority 1987, dated 1990):

Tests used:
leukotriene D4 = test: Leukotriene D4-induced bronchoconstriction (modified Konzett-Rossler, transpulmonary pressure) in anesthetized guinea pig, oral administration; format: in vivo, male Hartley guinea pig; details: p.o., 2 hours before leukotriene D4 (3 μg/kg, i.v.)
Experimental: A male Hartley guinea pig weighing about 450 g was anesthetized with sodium pentobarbital (30 mg/kg,i.p.). The change in transpulmonary pressure was measured by modifying the method of Konzett-Rossler (J. Harvey, et al., J. Pharmacol. Method. 9, 147-155, 1983) under an artificial ventilation. Animal was treated with indomethacin (10 mg/kg,i.v.) and propranolol (1 mg/kg,i.v.). Bronchoconstrictor response was obtained by bolus injection of leukotriene D4 (3 μg/kg,i.v.). Test compounds were suspended in 5% Gum Arabic solution and orally administered 2 hours before the challenge with leukotriene D4.

leukotriene = details: oral; P. Sheard et al, 1977; cited from earlier work

| Compound | Inhibition (%) of LTD4-induced bronchoconstrictor response (leukotriene D4; 200 mg/kg) | Inhibition (%) of LTD4-induced bronchoconstrictor response (leukotriene D4; 100 mg/kg) | other results |
| --- | --- | --- | --- |
| CCCc1c(OCCCS(=O)(=O)c2nc3ccc(C(=O)O)cc3[nH]2)ccc(C(C)=O)c1O [Example 6, 2-[3-(4-Acetyl-3-hydroxy-2-propylphenoxy)propylsulfonyl]benzimidazole-5-carboxylic acid] | 40.5% | – | – |
| CCCc1c(OCCCC[S+]([O-])c2nc3cc(C(=O)O)ccc3[nH]2)ccc(C(C)=O)c1O (stereo not drawn) [Example 12] | 33.3% | – | – |
| CCCc1c(OCC(O)COc2ccc3c(=O)cc(C(=O)O)oc3c2CCC)ccc(C(C)=O)c1O (stereo not drawn) [FPL55712] | – | – | effect of leukotriene antagonist when administered orally (leukotriene): no effect |
| CCCc1c(OCCCCc2nc3ccc(C(=O)O)cc3[nH]2)ccc(C(C)=O)c1O [Example 36, 2-[4-(4-Acetyl-3-hydroxy-2-propylphenoxy)butyl]-benzimidazole-5-carboxylic acid] | 88.6% | 44.6% | – |
| CCCc1c(OCCCSc2nc3ccc(C(=O)O)cc3[nH]2)ccc(C(C)=O)c1O [Example 1, 2-[3-(4-Acetyl-3-hydroxy-2-propylphenoxy)propyl-thio]benzimidazole-5-carboxylic acid] | 63.3% | 47.8% | – |
| CCCc1c(OCCCS(=O)(=O)c2nc3ccccc3[nH]2)ccc(C(C)=O)c1O [Ref. 1, 2-[3-(4-acetyl-3-hydroxy-2-propylphenoxy)propylsulfonyl]-benzimidazole, reference compound] | – | – | Inhibition (%) of LTD4-induced bronchoconstrictor response (leukotriene D4; 400 mg/kg): 19.5% |
| CCCc1c(OCCCCCSc2nc3cc(C(=O)O)ccc3[nH]2)ccc(C(C)=O)c1O [Example 24] | 57.1% | – | – |
| CCCc1c(OCCCCSc2nc3cc(C(=O)O)ccc3[nH]2)ccc(C(C)=O)c1O [Example 11] | – | 84.6% | Inhibition (%) of LTD4-induced bronchoconstrictor response (leukotriene D4; 25 mg/kg): 27.6%; Inhibition (%) of LTD4-induced bronchoconstrictor response (leukotriene D4; 50 mg/kg): 73.1% |
